What was measured:
PI3Kδ = PI3Kδ (Homo sapiens (Human), UniProt O00329); test: PI3K Enzyme Assay (Example A2), [γ-33P]ATP filter plate; format: biochemical
Procedure, shortened: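 Recombinant PI3Kδ at 2.9 nM with 50 µM PIP2 in MOPS pH 6.7, MgCl2, DTT, CHAPS, 0.5% DMSO; started with 1000 μM ATP including [γ-33P]ATP, 180 min at room temperature. Phosphorylated product captured on PVDF filter plates and scintillation-counted; IC50 from percent-control activity vs log concentration.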

SUDHL-6 cells = test: SUDHL-6 Cell Proliferation Assay (Example B3); format: cell-based; conditions: 3 days, Cell Titer-GLO
Experimental: Example B3: SUDHL-6 Cell Proliferation Assay
SUDHL-6 cell line (diffuse large B cell lymphoma) was purchased from ATCC (Manassas, Va.) and maintained in the culture medium recommended (RPMI and 10% FBS). To measure the anti-proliferation activity of the compounds through ATP quantitation, the SUDHL-6 cells was plated with the culture medium (5000 cells/well/per 200 μl) into 96-well polystyrene clear black tissue culture plate (Greiner-bio-one through VWR, NJ) in the presence or absence of a concentration range of test compounds. After 3 days, Cell Titer-GLO Luminescent (Promega, Madison, Wis.) cell culture agent was added to each well for 10 minutes at room temperature to stabilize the luminescent signal. This determines the number of viable cells in culture based on quantitation of the ATP present, which signals the presence of metabolically active cells. Luminescence was measured with the TopCount 384 (Packard Bioscience through Perkin Elmer, Boston, Mass.). […] IC50 data for the Examples is presented in Table 4 determined by the assay of Example B3.

PI3Kδ, sequence (O00329 whole entry): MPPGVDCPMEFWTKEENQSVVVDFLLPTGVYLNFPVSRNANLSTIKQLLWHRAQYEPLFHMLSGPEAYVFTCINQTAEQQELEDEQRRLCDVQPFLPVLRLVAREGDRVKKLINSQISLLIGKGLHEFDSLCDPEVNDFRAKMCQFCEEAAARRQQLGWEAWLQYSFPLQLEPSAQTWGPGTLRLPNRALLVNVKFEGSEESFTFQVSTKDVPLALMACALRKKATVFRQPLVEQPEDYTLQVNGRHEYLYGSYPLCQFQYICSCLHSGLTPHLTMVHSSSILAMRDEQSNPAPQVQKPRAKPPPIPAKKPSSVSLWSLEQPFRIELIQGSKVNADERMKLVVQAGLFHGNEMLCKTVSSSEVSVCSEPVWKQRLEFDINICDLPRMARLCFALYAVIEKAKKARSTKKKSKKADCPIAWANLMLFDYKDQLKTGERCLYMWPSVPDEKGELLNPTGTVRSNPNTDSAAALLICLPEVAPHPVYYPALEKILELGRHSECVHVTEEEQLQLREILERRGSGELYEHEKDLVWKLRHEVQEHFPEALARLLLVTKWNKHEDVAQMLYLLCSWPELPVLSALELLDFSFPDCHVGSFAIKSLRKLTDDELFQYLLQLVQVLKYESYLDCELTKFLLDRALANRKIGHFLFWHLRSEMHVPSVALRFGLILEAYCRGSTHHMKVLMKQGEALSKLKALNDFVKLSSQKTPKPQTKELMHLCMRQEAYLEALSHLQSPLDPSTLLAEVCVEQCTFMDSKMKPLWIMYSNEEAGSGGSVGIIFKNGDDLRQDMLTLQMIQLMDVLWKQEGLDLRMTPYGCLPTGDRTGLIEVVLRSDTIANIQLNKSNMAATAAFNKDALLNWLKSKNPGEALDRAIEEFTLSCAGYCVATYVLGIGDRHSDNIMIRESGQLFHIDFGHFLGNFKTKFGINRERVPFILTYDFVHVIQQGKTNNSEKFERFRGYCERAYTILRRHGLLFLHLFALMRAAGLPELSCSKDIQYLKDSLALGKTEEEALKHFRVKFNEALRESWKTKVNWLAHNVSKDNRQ
PI3Kδ, sequence (P27986 whole entry partner): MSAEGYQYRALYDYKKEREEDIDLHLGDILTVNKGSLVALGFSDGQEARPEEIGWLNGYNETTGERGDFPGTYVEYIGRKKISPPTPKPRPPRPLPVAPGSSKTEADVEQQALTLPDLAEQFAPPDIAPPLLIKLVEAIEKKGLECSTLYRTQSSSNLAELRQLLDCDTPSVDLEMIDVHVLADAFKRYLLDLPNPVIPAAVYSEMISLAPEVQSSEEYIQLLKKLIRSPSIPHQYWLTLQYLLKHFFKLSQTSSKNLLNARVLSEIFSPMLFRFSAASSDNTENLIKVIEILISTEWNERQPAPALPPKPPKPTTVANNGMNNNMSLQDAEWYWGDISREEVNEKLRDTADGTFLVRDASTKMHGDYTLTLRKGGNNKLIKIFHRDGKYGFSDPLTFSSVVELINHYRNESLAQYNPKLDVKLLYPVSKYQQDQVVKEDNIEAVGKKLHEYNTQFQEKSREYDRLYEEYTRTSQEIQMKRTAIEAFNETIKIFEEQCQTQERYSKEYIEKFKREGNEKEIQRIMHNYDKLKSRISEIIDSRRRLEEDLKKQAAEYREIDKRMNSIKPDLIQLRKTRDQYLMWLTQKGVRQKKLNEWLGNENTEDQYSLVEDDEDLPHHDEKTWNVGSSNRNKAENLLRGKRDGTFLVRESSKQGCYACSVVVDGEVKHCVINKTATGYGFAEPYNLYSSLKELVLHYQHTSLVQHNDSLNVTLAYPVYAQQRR

| Compound | IC50 (PI3Kδ) [nM] | IC50 (SUDHL-6 cells) [nM] | IC50 (SUDHL-6 cells; Homo sapiens, SU-DHL-6, 72 h) [nM] |
| --- | --- | --- | --- |
| Cc1nn(C(C)c2cc(Cl)c(F)c3c2OC(C)CN(S(C)(=O)=O)C3)c2ncnc(N)c12 (single isomer, unassigned) [Example 40, 1-{1-[7-Chloro-6-fluoro-2-methyl-4-(methylsulfonyl)-2,3,4,5-tetrahydro-1,4-benzoxazepin-9-yl]ethyl}-3-methyl-1H-pyrazolo[3,4-d]pyrimidin-4-amine] | ≤ 100 | ≤ 500 | – |
| CC(=O)N1CC(N2Cc3c(C#N)c(Cl)cc(C(C)n4nc(C)c5c(N)ncnc54)c3OC(C)C2)C1 (single isomer, unassigned) [Example 49, 4-(1-Acetylazetidin-3-yl)-9-[1-(4-amino-3-methyl-1H-pyrazolo[3,4-d]pyrimidin-1-yl)ethyl]-7-chloro-2-methyl-2,3,4,5-tetrahydro-1,4-benzoxazepine-6-carbonitrile] | ≤ 100 | ≤ 500 | – |
| Cc1nn(C(C)c2cc(Cl)c(C#N)c3c2OC(C)CN(CCO)C3)c2ncnc(N)c12 (single isomer, unassigned) [Example 62, 9-[1-(4-Amino-3-methyl-1H-pyrazolo[3,4-d]pyrimidin-1-yl)ethyl]-7-chloro-4-(2-hydroxyethyl)-2-methyl-2,3,4,5-tetrahydro-1,4-benzoxazepine-6-carbonitrile] | ≤ 100 | – | ≤ 500 |
| Cc1nn(C(C)c2cc(Cl)c(C#N)c3c2OC(C)CN(CCO)C3)c2ncnc(N)c12 (single isomer, unassigned) [Example 63, 9-[1-(4-Amino-3-methyl-1H-pyrazolo[3,4-d]pyrimidin-1-yl)ethyl]-7-chloro-4-(2-hydroxyethyl)-2-methyl-2,3,4,5-tetrahydro-1,4-benzoxazepine-6-carbonitrile] | ≤ 100 | ≤ 500 | – |

Further lines, results first:

| IC50 (PI3Kδ) [nM] | IC50 (SUDHL-6 cells) [nM] | IC50 (SUDHL-6 cells; Homo sapiens, SU-DHL-6, 72 h) [nM] | Compound |
| --- | --- | --- | --- |
| ≤ 100 | ≤ 500 | – | CC(=O)N1CC(N2Cc3c(F)c(Cl)cc(C(C)n4nc(C)c5c(N)ncnc54)c3OC(C)C2)C1 (single isomer, unassigned) [Example 32, 1-{1-[4-(1-Acetylazetidin-3-yl)-7-chloro-6-fluoro-2-methyl-2,3,4,5-tetrahydro-1,4-benzoxazepin-9-yl]ethyl}-3-methyl-1H-pyrazolo[3,4-d]pyrimidin-4-amine] |
| ≤ 100 | – | ≤ 500 | Cc1nn(C(C)c2cc(Cl)c(F)c3c2OC(C)CN(S(C)(=O)=O)C3)c2ncnc(N)c12 (single isomer, unassigned) [Example 37, 1-{1-[7-Chloro-6-fluoro-2-methyl-4-(methylsulfonyl)-2,3,4,5-tetrahydro-1,4-benzoxazepin-9-yl]ethyl}-3-methyl-1H-pyrazolo[3,4-d]pyrimidin-4-amine] |
